The values that follow are results of earlier work, collected in US20170348285A1, “TREATMENT OF DRY EYE DISEASE WITH PARASYMPATHETIC & ANTI-SYMPATHETIC AGENTS” (priority 2016, published 2017).

The conditions of data set [1]: systemic administration.
The conditions of data set [2]: topical formulation.
For data set [3] the following is noted: topical 0.05%, treatment for two months.

`CCOc1ccccc1OCCN[C@H](C)Cc1ccc(OC)c(S(N)(=O)=O)c1` [tamsulosin]: under “during eye surgery”, the floppy iris syndrome result is reported as “can cause the floppy iris syndrome”. For the same compound, the retrograde ejaculation entry (in vivo) is given as “can cause retrograde ejaculation”.

Consider `CC[C@@H]1C(=O)OC[C@@H]1Cc1cncn1C` [pilocarpine], for which the “efficacy as treatment of dry eye disease” value in data set [1] is recorded as “effective systemic treatment of dry eye disease”. Besides, the spasms of accommodation entry in data set [2] is “cause spasms of accommodation”. For the same compound, in data set [3], the “change in pupil size” value was “without any change in pupil size” and the tear production entry was “stimulate tear production”.
